Test results from patent publication US6380165B1, “Immunological advanced glycation endproduct crosslink” (The Picower Institute for Medical Research, priority 1997, dated 2002).
Where a SMILES comes first, the peptide text is derived from it. The star is where a group is joined. Cbz = O=C(OCc1ccccc1)*

Tests used:
[1] = test system: polyclonal anti-AGE antibody “RU”; assay: anti-AGE antibody-based competitive ELISA to measure AGE content (AGE-BSA as absorbed antigen); assay type: binding, rabbit; conditions: FIG. 1
From the text: For comparison purposes, the reactivity of FFI, CML, AFGP, pentosidine and cyclic pentosidine, and ligands with related epitope structure, such as N^α-Z-arg-lys, N^α-Z-arg-lys-AP, an imidazolium adduct, a pyrimidinium adduct, histidine, and lys-his, were studied. ELISA competition curves for the polyclonal anti-AGE antibody “RU” followed the methods described by Makita et al. (J. Biol. Chem. 267:1992, 1992). Assays employed glucose-derived, AGE-BSA as the absorbed antigen. FFI: 4-furanyl-2-furoyl-1H-imidazole (Ponger et al,. Proc. Natl. Acad Sci. U.S.A. 81:2684, 1984), CML: carboxy-methyllysine (Ahmed et al., J. Biol. Chem. 261:4889, 1986), AFGP: 1-alkyl-2-formyl-3,4-diglycosylpyrrole (Farmar et al., J. Org. Chem. 53:2346, 1988), PY: pyrraline (Njoroge et al., Carbohydrate Res. 167:211, 1987), P: pentosidine (Sell and Monnier, J. Biol. Chem. 264:21597, 1989), CP: cyclic pentosidine (CP) (Al-Abed et al., Bioorg. Med. Chem. Lett. 5:2929, 1995), AL: N^α-Z-arg-lys (AL), ALAP: N^α-Z-arg-lys-AP, H: histidine, LH: lys-his, PA: pyrimidinium adduct (Al-Abed et al., Bioorg. Med. Chem. Lett. 6:1577, 1996), and IA: imldazolium adduct (Brinkmann et al., J. Chem. Soc. Perkin Trans.
This example illustrates the discovery and isolation of the AGE of formula I. The dipeptide N^α-Z-arg-lys was selected as a target, because a close association of the arginine and lysine residues provides a significant proximity effect that promotes crosslink formation. Moreover, a synthetic strategy employing an arg-lys dipeptide was used successfully in the past to isolate a cyclic pentosidine in a high yield (Beisswenger et al., Diabetes 44:824, 1995). N^α-Z-arg-lys (13 mmoles) was incubated together with 10 equivalents of glucose in 0.2 M phosphate buffer (pH 7.4) for five weeks at 37° C. At least 25 distinct reaction products were identified upon fractionation of this mixture by reverse-phase HPLC. Each fraction was isolated, concentrated, and analyzed for its reactivity with anti-AGE antibody by ELISA (Makita et al., J. Biol Chem. 267:1992, 1992). Briefly, HPLC fractions and purified compounds were analyzed by an AGE-specific ELISA following methods described previously (Makita et al., J. Biol. Chem. 267:1992, 1992). This ELISA employed a polyclonal anti-AGE antibody raised by hyperimmunization against a heavily AGE-crosslinked preparation of ribonuclease. Total IgG was prepared by protein-G affinity chromatography and the ribonuclease backbone specificities removed by immunoabsorption. For assaying AGE immunoreactivity, 96-well round bottom microtitre plates (EIA/RIA plate, Costar, Cambridge, Mass.) first were coated with AGE-BSA (3 mg/ml, dissolved in 0.1 M sodium bicarbonate, pH 9.6) by incubation overnight at 4° C. After washing, the unbound sites were blocked with SuperBlock™ following the manufacturer's recommendations (Pierce, Rockford, Ill.). After washing, dilutions of test antigen, together with anti-AGE IgG, were added and the plates incubated at room temperature for 1 hr. The plates then were washed again and incubated with a secondary antibody (alkaline phosphatase-conjugated anti-rabbit IgG) at 37° C. for 1 hr. The unbound antibodies were removed by extensive washing and bound antibodies were detected by incubation with-nitrophenyl phosphate (pNPP) substrate for 30-60 min, and recording the optical density at 405 nm by an ELISA reader (EL309, Bio-Tek Instruments Inc., Burlington, Vt.). Results were expressed as B/B0, calculated as [experimental OD—background OD (i.e. no antibody)]/[total OD (i.e. no competitor)—background OD].

[2] = acid lability of the isolated crosslink; assay type: physicochemical
AGE formation = assay: formation of the ALI crosslink from glucose and Nα-Z-arg-lys, inhibition of forming
From the text: This example illustrates a proposed mechanism of the AGE formation (FIG. 2). First, dehydration of the lysine-derived AP (which has been determined to form in 18% yield under these reaction conditions) gives an obligate, AP-dione reactive intermediate. Reversible addition of the guanidine moiety to the dicarbonyl yields the 2-amino-4,5-dihydroxyimidazole adduct, which then undergoes dehydration to deliver the stable cyclic ALI.

Molecule	crossreactivity / reactivity with the RU anti-AGE antibody [1]	other results
cyclic pentosidine [CP]	no detectable crossreactivity	
NCCCC[C@H](N)C(=O)N[C@@H](Cc1cnc[nH]1)C(=O)O [LH, lys-his]	no detectable crossreactivity	
N[C@@H](CCCCn1c(C=O)ccc1CO)C(=O)O [PY, pyrraline]	no detectable crossreactivity	
N^α-Z-arg-lys-AP [ALAP]	no detectable crossreactivity	
N=C(N)NCCC[C@H](NC(=O)OCc1ccccc1)C(=O)N[C@@H](CCCCN)C(=O)O [AL, N^α-Z-arg-lys] (Cbz-Arg-Lys-OH)	no detectable crossreactivity	
1-alkyl-2-formyl-3,4-diglycosylpyrrole [AFGP]	no detectable crossreactivity	
O=C(NC1CCCNC2=NC(=CNCCCCC(C(=O)O)NC1=O)C(CC(O)CO)=N2)OCc1ccccc1 (stereo not drawn) [ALI, Arg-Lys-Imidazole]		acid stability of the crosslink [2]: acid-labile
4-furanyl-2-furoyl-1H-imidazole [FFI]	no detectable crossreactivity	
N=C(N)NN [aminoguanidine]		inhibition of crosslink (ALI) formation (AGE formation): inhibited from forming
N[C@@H](Cc1c[nH]cn1)C(=O)O [H, histidine]	no detectable crossreactivity	
pentosidine	no detectable crossreactivity	
